Data published in PubChem BioAssay AID330 (DTP/NCI, 2004).
Where “and” joins values, the source holds several entries; their conditions need not be identical. Equal values may be shown once. Inconclusive results and toxic doses are left out.

Tested on: P388 leukemia ip, CD2F1 mice, survival T/C
Experiment: NCI In Vivo Anticancer Drug Screen. Data for tumor model P388 Leukemia (intraperitoneal) in CD2F1 (CDF1) mice
Conditions: endpoint: median survival time, higher = longer survival
How it was run: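 Mice carrying the transplanted tumor received test compound or vehicle. Survival was recorded in each group, and the value is the treated-group measurement divided by that of the vehicle-treated control group.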

[1] = dose: 60.0 mg/kg/injection, schedule: Q01DX005 (ip), vehicle: saline with Tween-80
[2] = dose: 120.0 mg/kg/injection, schedule: Q01DX005 (ip), vehicle: saline with Tween-80
[3] = dose: 12.5 mg/kg/injection, schedule: Q04DX002 (ip), vehicle: saline with Tween-80
[4] = dose: 12.5 mg/kg/injection, schedule: Q01DX009 (ip), vehicle: Klucel (hydroxypropylcellulose) (HPC)
[5] = dose: 50.0 mg/kg/injection, schedule: Q01DX009 (ip), vehicle: saline with Tween-80
[6] = dose: 100.0 mg/kg/injection, schedule: Q01DX009 (ip), vehicle: saline with Tween-80
[7] = dose: 6.25 mg/kg/injection, schedule: Q01DX005 (ip), vehicle: saline with Tween-80
[8] = dose: 12.5 mg/kg/injection, schedule: Q01DX005 (ip), vehicle: saline with Tween-80
[9] = dose: 60.0 mg/kg/injection, schedule: Q01DX005 (ip), vehicle: saline
[10] = dose: 120.0 mg/kg/injection, schedule: Q01DX005 (ip), vehicle: saline
[11] = dose: 100.0 mg/kg/injection, schedule: Q01DX001 (ip), vehicle: saline with Tween-80
[12] = dose: 200.0 mg/kg/injection, schedule: Q01DX001 (ip), vehicle: saline with Tween-80
[13] = dose: 100.0 mg/kg/injection, schedule: Q04DX003 (ip), vehicle: saline with Tween-80
[14] = dose: 200.0 mg/kg/injection, schedule: Q04DX003 (ip), vehicle: saline with Tween-80
[15] = dose: 200.0 mg/kg/injection, schedule: Q01DX009 (ip), vehicle: saline with Tween-80

## C=C(C)OP(=O)(OCC)OCC
dose: 100.0 mg/kg/injection, schedule: Q01DX001 (ip), vehicle: Klucel (hydroxypropylcellulose) (HPC)
  T/C: 100 % of control
dose: 200.0 mg/kg/injection, schedule: Q01DX001 (ip), vehicle: Klucel (hydroxypropylcellulose) (HPC)
  T/C: 111 % of control
dose: 400.0 mg/kg/injection, schedule: Q01DX001 (ip), vehicle: Klucel (hydroxypropylcellulose) (HPC)
  T/C: 102 % of control

## Cc1c(NC(=O)Nc2cc([N+](=O)[O-])ccc2Cl)c(=O)n(-c2ccccc2)n1C
[1]
  T/C: 94 % of control
[2]
  T/C: 86 % of control

## O=C1NC(=O)C2(CCCC2)c2ccncc21
dose: 6.25 mg/kg/injection, schedule: Q04DX002 (ip), vehicle: saline with Tween-80
  T/C: 96 % of control
[3]
  T/C: 96 % of control

## C/C(=C\[P+](c1ccccc1)(c1ccccc1)c1ccccc1)N1CC1
dose: 6.0 mg/kg/injection, schedule: Q01DX001 (ip), vehicle: saline with Tween-80
  T/C: 107 % of control and 115 % of control
dose: 9.0 mg/kg/injection, schedule: Q01DX001 (ip), vehicle: saline with Tween-80
  T/C: 101 % of control and 113 % of control
dose: 12.0 mg/kg/injection, schedule: Q01DX001 (ip), vehicle: saline with Tween-80
  T/C: 105 % of control and 108 % of control
dose: 12.5 mg/kg/injection, schedule: Q01DX001 (ip), vehicle: saline with Tween-80
  T/C: 123 % of control
dose: 18.0 mg/kg/injection, schedule: Q01DX001 (ip), vehicle: saline with Tween-80
  T/C: 105 % of control and 113 % of control

## c1csc(-c2n[se]c(-c3cccs3)n2)c1
[3]
  T/C: 99 % of control
dose: 25.0 mg/kg/injection, schedule: Q04DX002 (ip), vehicle: saline with Tween-80
  T/C: 100 % of control

## c1onc2cc3c(cc12)OCO3
dose: 0.39 mg/kg/injection, schedule: Q01DX009 (ip), vehicle: Klucel (hydroxypropylcellulose) (HPC)
  T/C: 86 % of control and 88 % of control
dose: 0.78 mg/kg/injection, schedule: Q01DX009 (ip), vehicle: Klucel (hydroxypropylcellulose) (HPC)
  T/C: 89 % of control and 95 % of control
dose: 1.56 mg/kg/injection, schedule: Q01DX009 (ip), vehicle: Klucel (hydroxypropylcellulose) (HPC)
  T/C: 124 % of control and 89 % of control and 93 % of control
dose: 3.13 mg/kg/injection, schedule: Q01DX009 (ip), vehicle: Klucel (hydroxypropylcellulose) (HPC)
  T/C: 99 % of control and 92 % of control
[4]
  T/C: 89 % of control
dose: 25.0 mg/kg/injection, schedule: Q01DX009 (ip), vehicle: Klucel (hydroxypropylcellulose) (HPC)
  T/C: 93 % of control

## O=C1CC2OCCC3CN4CCC56c7ccccc7N1C5C2C3CC46 (configuration not stated)
dose: 7.5 mg/kg/injection, schedule: Q01DX005 (ip), vehicle: Klucel (hydroxypropylcellulose) (HPC)
  T/C: 101 % of control
dose: 15.0 mg/kg/injection, schedule: Q01DX005 (ip), vehicle: Klucel (hydroxypropylcellulose) (HPC)
  T/C: 98 % of control
dose: 30.0 mg/kg/injection, schedule: Q01DX005 (ip), vehicle: Klucel (hydroxypropylcellulose) (HPC)
  T/C: 98 % of control

## CN=Cc1ccc(OC)cc1
dose: 25.0 mg/kg/injection, schedule: Q01DX009 (ip), vehicle: saline with Tween-80
  T/C: 95 % of control
[5]
  T/C: 95 % of control
[6]
  T/C: 95 % of control

## Cc1ccc(-n2c(=O)[nH]c3ccccc3c2=O)cc1[N+](=O)[O-]
[7]
  T/C: 101 % of control
[8]
  T/C: 97 % of control
dose: 200.0 mg/kg/injection, schedule: Q01DX005 (ip), vehicle: saline with Tween-80
  T/C: 90 % of control

## CN(C)c1c(Cl)c(=O)oc2c1ccc1nc(-c3ccccc3)ncc12
[1]
  T/C: 97 % of control
[2]
  T/C: 88 % of control

## C#CCCCOC1CCCCO1 (configuration not stated)
[9]
  T/C: 100 % of control
[10]
  T/C: 100 % of control
dose: 240.0 mg/kg/injection, schedule: Q01DX005 (ip), vehicle: saline
  T/C: 100 % of control

## C[n+]1cccc2c1C(=O)C(=O)c1c-2ccc[n+]1C
dose: 100.0 mg/kg/injection, schedule: Q04DX002 (ip), vehicle: saline with Tween-80
  T/C: 120 % of control
dose: 200.0 mg/kg/injection, schedule: Q04DX002 (ip), vehicle: saline with Tween-80
  T/C: 105 % of control

## CCOC(=O)/N=[N+](\[O-])c1cccc([N+](=O)[O-])c1
[11]
  T/C: 103 % of control
[12]
  T/C: 93 % of control

## CC(=O)OCC1OC(n2cccc(OC(C)=O)c2=O)C(OC(C)=O)C1OC(C)=O (configuration not stated)
dose: 50.0 mg/kg/injection, schedule: Q01DX005 (ip), vehicle: saline
  T/C: 103 % of control
dose: 50.0 mg/kg/injection, schedule: Q01DX005 (ip), vehicle: suspension in saline
  T/C: 99 % of control
dose: 100.0 mg/kg/injection, schedule: Q01DX005 (ip), vehicle: saline
  T/C: 99 % of control
dose: 100.0 mg/kg/injection, schedule: Q01DX005 (ip), vehicle: suspension in saline
  T/C: 99 % of control
dose: 200.0 mg/kg/injection, schedule: Q01DX005 (ip), vehicle: saline
  T/C: 102 % of control
dose: 200.0 mg/kg/injection, schedule: Q01DX005 (ip), vehicle: suspension in saline
  T/C: 113 % of control
dose: 400.0 mg/kg/injection, schedule: Q01DX005 (ip), vehicle: saline
  T/C: 98 % of control
dose: 400.0 mg/kg/injection, schedule: Q01DX005 (ip), vehicle: suspension in saline
  T/C: 96 % of control

## CCC(C(=O)N(C)C)n1nc(Br)c(Br)c1C (configuration not stated)
dose: 100.0 mg/kg/injection, schedule: Q04DX003 (ip), vehicle: Klucel (hydroxypropylcellulose) (HPC)
  T/C: 97 % of control
dose: 200.0 mg/kg/injection, schedule: Q04DX003 (ip), vehicle: Klucel (hydroxypropylcellulose) (HPC)
  T/C: 95 % of control

## O=C(O)C(CSC(c1ccccc1)(c1ccccc1)c1ccccc1)N=Cc1ccccc1O (configuration not stated)
[13]
  T/C: 168 % of control
dose: 150.0 mg/kg/injection, schedule: Q04DX003 (ip), vehicle: saline with Tween-80
  T/C: 190 % of control
[14]
  T/C: 122 % of control

## CCCCC(CCCCCC(CCCC)NCc1ccc2c(c1)OCO2)NCc1ccc2c(c1)OCO2 (configuration not stated)
dose: 3.12 mg/kg/injection, schedule: Q01DX009 (ip), vehicle: Klucel (hydroxypropylcellulose) (HPC)
  T/C: 102 % of control
dose: 6.25 mg/kg/injection, schedule: Q01DX009 (ip), vehicle: Klucel (hydroxypropylcellulose) (HPC)
  T/C: 97 % of control
[4]
  T/C: 100 % of control and 112 % of control

## CC(C)(CO)NC(=O)c1ccccc1Br
[5]
  T/C: 100 % of control
[6]
  T/C: 100 % of control
[15]
  T/C: 99 % of control

## CCN(CC)CCN(C)C(C)C(=O)Nc1ccccc1Cl (configuration not stated)
[9]
  T/C: 105 % of control
[10]
  T/C: 100 % of control

## CCn1nccc1N
[7]
  T/C: 98 % of control
[8]
  T/C: 106 % of control
dose: 25.0 mg/kg/injection, schedule: Q01DX005 (ip), vehicle: saline with Tween-80
  T/C: 104 % of control

## O=C(N/N=C/c1cc(Cl)cc(Cl)c1O)c1ccccc1
[11]
  T/C: 96 % of control
[12]
  T/C: 98 % of control
dose: 400.0 mg/kg/injection, schedule: Q01DX001 (ip), vehicle: saline with Tween-80
  T/C: 103 % of control

## CCCCCCC[CH2][Sn](=[O])[CH2]CCCCCCC
dose: 12.5 mg/kg/injection, schedule: Q01DX009 (ip), vehicle: saline
  T/C: 100 % of control
dose: 25.0 mg/kg/injection, schedule: Q01DX009 (ip), vehicle: saline
  T/C: 116 % of control
[5]
  T/C: 101 % of control
dose: 50.0 mg/kg/injection, schedule: Q01DX009 (ip), vehicle: saline
  T/C: 100 % of control

## CCO/C=C1\SC(=S)N(c2ccccc2OC)C1=O
dose: 88.0 mg/kg/injection, schedule: Q01DX009 (ip), vehicle: saline with Tween-80
  T/C: 118 % of control
[13]
  T/C: 104 % of control
dose: 132.0 mg/kg/injection, schedule: Q01DX009 (ip), vehicle: saline with Tween-80
  T/C: 119 % of control
dose: 178.0 mg/kg/injection, schedule: Q04DX003 (ip), vehicle: saline with Tween-80
  T/C: 118 % of control
[15]
  T/C: 112 % of control
[14]
  T/C: 109 % of control
dose: 266.0 mg/kg/injection, schedule: Q04DX003 (ip), vehicle: saline with Tween-80
  T/C: 118 % of control
dose: 400.0 mg/kg/injection, schedule: Q04DX003 (ip), vehicle: saline with Tween-80
  T/C: 122 % of control
